According to paper PMC9775652, “Concomitant Administration of Red Ginseng Extract with Lactic Acid Bacteria Increases the Plasma Concentration of Deglycosylated Ginsenosides in Healthy Human Subjects” (Biomolecules, 2022):
Where two headings read alike, the source gives them in different places.

Legend:
[1] = Transport (permeability) of ginsenosides in CaCo-2 cell monolayers; assay type: in vitro ADME; details: human
Description: (§1) CaCo-2 cells (passage no 41–43) were seeded onto collagen-coated permeable support (1.0 μm pore size) in a 24-well plate at a density of 2.5 × 10^4 cells/insert and cultured for 21 days in Dulbecco’s modified eagle’s medium supplemented with 10% fetal bovine serum, 1% non-essential amino acids, and 1% penicillin-streptomycin at 37 °C in a humidified atmosphere (5% CO2/95% air). After confirming that the transepithelial electrical resistance (TEER) of the CaCo-2 cell monolayer was over 400 Ω·cm^2, Apical to basal (A to B) transport and B to A transport of ginsenosides using 50 µM, GRb1 was investigated as previously described. The same permeability study was performed using 50 µM GRb2, GRc, GRd, GRg3, GRh2, GF2, CK, PPD, GRe, GRf, GRg1, GRh1, GF1, or PPT.
(§2) For the transport study of ginsenosides in CaCo-2 cells and LLC-PK1-P-gp cells, the ginsenoside transport rate in the A to B or B to A directions was calculated from the slope of the regression line from the mean transported amounts versus time plot. The apparent permeability (Papp) was calculated using Equation (1). (1) Papp (×10^−6 cm/s)=transport rate (nmol/min)/concentration(μM)×area(cm^2)×60s
(§3) The efflux ratio was calculated by dividing the Papp of ginsenosides from the B to A direction by that from the A to B direction.

[2] = tested on: LAB; experiment: In vitro RGE fermentation with LAB; assay type: in vitro ADME
Description: To identify the effects of LAB on ginsenoside metabolism, an in vitro fermentation study was performed according to the method of Jeon et al., with slight modifications. Briefly, RGE (10 mL, 1 pouch) and 2 g LAB (containing 1 billion CFU) were suspended in 10 mL autoclaved MRS broth (550 mg broth powder dissolved in 10 mL water). For the 15 ginsenosides, individual ginsenosides (10 μM each) and 2 g of LAB were suspended in 20 mL of autoclaved MRS broth (550 mg broth powder dissolved in 20 mL water). The mixture was incubated for 7 days in a shaking incubator at 37 °C and 300 rpm, and a 0.1 mL aliquot of the incubation mixture was collected on days 0, 3, 5, and 7. The incubation medium was diluted 100-fold with distilled water and stored at −80 °C to analyze ginsenosides using the LC-MS/MS system.
To measure the metabolic activity of ginsenosides, the formation rate of ginsenosides (pmol/day) was calculated by dividing the slope of the regression line by the amount of deglycosylated ginsenosides versus the incubation time plot by the initial concentration of individual ginsenosides.

[3] = Pharmacokinetic study of ginsenosides in healthy humans after repeated oral RGE with or without LAB; assay type: in vivo, human
Description: A single-sequence study consisting of two periods was conducted on five healthy male subjects (body weight > 50 kg and age > 19 years) for 29 days. During the first period of the study (RGE treatment group), three pouches of RGE (30 mL, 104.1 mg of total ginsenosides) were administered to 5 subjects once daily for 14 days. On the 14th day, the subjects were admitted to the Clinical Trial Center of KNUH at 7 AM and underwent the last RGE administration at approximately 8–9 AM. Blood samples (approximately 3 mL) were collected at 0, 4, 6, 8, 10, 12, 13, 14, and 24 h after the last dose. A saline-locked angiocatheter was placed on the forearm of each subject’s hand. After discarding 1 mL of blood derived from the catheter, 3 mL of blood was drawn into a vacutainer tube containing heparin and centrifuged at 3000× g for 10 min. The supernatant plasma samples were stored at −80 °C until ginsenoside analysis.
In the second half of the study (RGE + LAB treatment group), 3 pouches of RGE (30 mL, 104.1 mg of total ginsenosides) and 1 pouch of LAB (1 billion CFU/2 g) were co-administered once daily for 14 days. On the […], the subjects were admitted to the Clinical Trial Center of KNUH at 7 AM and received the last red ginseng dose at approximately 8–9 AM. Blood samples (approximately 3 mL) were withdrawn at 0, 4, 6, 8, 10, 12, 13, 14, and 24 h intervals after the last dose and centrifuged at 3000× g for 10 min; the supernatant plasma samples were stored at −80 °C.
Briefly, to analyze GRb1, GRb2, GRc, GRd, GRe, GRf, GRg1, GRg3, GF1, and GF2, 400 μL of an internal standard (IS; 0.05 ng/mL berberine in methanol) was added to 100 μL of plasma. The mixture was vortexed for 15 min and centrifuged at 16,000× g for 5 min. After centrifugation, 400 μL of the supernatant was evaporated using a speed-dry vacuum concentrator (Christ, Osterode am Harz, Germany). The residue was reconstituted using 200 μL of 70% methanol supplemented with 0.1% formic acid, and a 10 μL aliquot was injected into the LC-MS/MS system. Chromatographic separation was performed using a Polar RP column (150 × 2.0 mm, 4.0 μm particle size; Phenomenex, Torrance, CA, USA) using a mobile phase consisting of 0.1% formic acid in water (phase A) and 0.1% formic acid in methanol (phase B). The following elution gradient was used: 69% of phase B for 0–2.0 min, 69–85% of phase B for 2.0–4.0 min, and 85–69% of phase B for 6.0–6.5 min. The flow rate was 0.27 mL/min.
The mixture was vortexed for 10 min and centrifuged at 16,000× g for 5 min. After centrifugation, the samples were frozen at −80 °C for 4 h. The upper layer was transferred to a clean tube and evaporated. The residue was reconstituted using 200 μL of 80% methanol supplemented with 0.1% formic acid, and a 10 μL aliquot was injected into the LC-MS/MS system. Chromatographic separation was performed using a Luna C18 column (150 × 2.0 mm, 3.0 μm particle size; Phenomenex, Torrance, CA, USA) and using a mobile phase consisting of water containing 0.1% formic acid: methanol containing 0.1% formic acid = 8:92 (v/v) at a flow rate of 0.15 mL/min.
The quantification of ginsenosides was carried out using multiple reaction monitoring in positive ionization mode, as previously described.
Finally, pharmacokinetic parameters were calculated using non-compartmental methods (WinNonlin version 5.1; Pharsight Co., Certara, NJ, USA). Statistical analysis was performed by Student’s t-test to compare the two groups using IBM SPSS Statistics for Windows (version 25.0; IBM Corp., Armonk, NY, USA). Differences were considered significant at p < 0.05.

[4] = in rats; cited from earlier work
[5] = tested on: CaCo-2 cells; experiment: Transport (permeability) of ginsenosides in CaCo-2 cell monolayers; assay type: in vitro ADME; details: Caco-2
Description: as §1, §2, §3

[6] = biological target: T1, P-gp (Homo sapiens, UniProt P08183); experiment: Transport of ginsenosides in P-gp-overexpressing LLC-PK1-P-gp cells; assay type: in vitro ADME
T1 construct: host or cells: LLC-PK1-P-gp cells (passage no. 25–28)
Description: LLC-PK1-P-gp cells (passage no. 25–28) were seeded onto collagen-coated permeable support (1.0 μm pore size) in 24-well plates at a density of 2.5 × 10^4 cells/insert and grown for 5 days with TEER values of over 500 Ω·cm^2 [24]. The A to B transport and B to A transport of GRg3, GRh2, CK, PPD, GRg1, GRh1, and PPT (20 μM each) were measured as previously described. The concentration dependency in the B to A transport of GRh2, CK, PPD, and PPT was measured in the range of 6.25–200 μM for GRh2, CK, PPD, and PPT.
as §2, §3
To measure the kinetic parameters of the concentration dependence on the P-gp-mediated ginsenoside efflux, the ginsenoside transport rate in the B to A direction (ν) versus the ginsenoside concentration (S) plot was fitted in the Michaelis–Menten Equation (2) using Sigma Plot (version 12.0, Systat Software Inc. Chicago, IL, USA). (2) ν=Vmax×S/Km+S

[7] = RGE incubated with LAB (1 billion CFU) for 7 days at 37 °C, result in words
[8] = CaCo-2 cell monolayers, 50 µM ginsenoside, read-out: A to B Papp

T1 sequence (P08183 whole entry): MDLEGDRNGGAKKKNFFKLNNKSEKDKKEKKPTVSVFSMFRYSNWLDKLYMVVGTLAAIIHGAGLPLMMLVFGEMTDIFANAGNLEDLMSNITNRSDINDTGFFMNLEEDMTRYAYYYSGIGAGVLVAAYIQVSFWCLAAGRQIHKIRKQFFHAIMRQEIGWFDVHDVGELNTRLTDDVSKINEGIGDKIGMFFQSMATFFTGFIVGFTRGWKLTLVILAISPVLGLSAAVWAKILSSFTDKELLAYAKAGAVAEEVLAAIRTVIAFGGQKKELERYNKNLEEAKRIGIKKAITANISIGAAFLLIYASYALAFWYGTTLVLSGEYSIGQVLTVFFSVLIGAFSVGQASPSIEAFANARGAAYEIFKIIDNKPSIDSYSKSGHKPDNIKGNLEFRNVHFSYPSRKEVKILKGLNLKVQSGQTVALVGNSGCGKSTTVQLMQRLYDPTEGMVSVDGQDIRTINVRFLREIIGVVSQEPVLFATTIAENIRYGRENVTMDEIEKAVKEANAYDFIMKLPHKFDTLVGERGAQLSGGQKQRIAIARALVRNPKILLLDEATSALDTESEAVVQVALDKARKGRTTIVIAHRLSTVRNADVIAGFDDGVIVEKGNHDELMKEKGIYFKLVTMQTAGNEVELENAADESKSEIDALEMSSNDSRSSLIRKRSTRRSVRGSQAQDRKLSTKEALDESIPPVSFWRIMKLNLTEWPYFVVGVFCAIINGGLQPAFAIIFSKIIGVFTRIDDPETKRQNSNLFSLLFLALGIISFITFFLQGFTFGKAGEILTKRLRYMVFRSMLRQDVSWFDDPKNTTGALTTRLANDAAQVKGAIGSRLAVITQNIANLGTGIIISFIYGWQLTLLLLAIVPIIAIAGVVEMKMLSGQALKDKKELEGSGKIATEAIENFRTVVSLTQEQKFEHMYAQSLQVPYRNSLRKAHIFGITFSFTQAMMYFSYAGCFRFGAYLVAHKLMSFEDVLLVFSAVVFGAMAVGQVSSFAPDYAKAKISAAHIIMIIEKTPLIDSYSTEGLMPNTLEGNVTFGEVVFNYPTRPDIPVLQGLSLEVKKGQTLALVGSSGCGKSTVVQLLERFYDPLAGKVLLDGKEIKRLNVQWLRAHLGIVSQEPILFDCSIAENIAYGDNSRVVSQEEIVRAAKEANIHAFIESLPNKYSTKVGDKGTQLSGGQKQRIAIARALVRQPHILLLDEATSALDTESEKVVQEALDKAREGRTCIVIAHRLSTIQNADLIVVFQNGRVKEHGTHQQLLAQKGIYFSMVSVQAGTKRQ

Row | Structure (SMILES) | Relative abundance / metabolic activity following fermentation of RGE with LAB [2, 7] | Papp A→B at 50 µM [1, 8] [×10⁻⁶ cm/s] | Cmax ([3]; human, in vivo, po) [ng/mL] | MRT ([3]; human, in vivo, po) [h] | Tmax ([3]; human, in vivo, po) [h] | AUC ([3]; human, in vivo, po, 104.1 mg) [ng·h/mL] | A to B Papp [5] | Relative abundance / metabolic activity following fermentation of RGE with LAB [2] | other results
1 | CC(C)=CCCC(C)(OC1OC(CO)C(O)C(O)C1O)C1CCC2(C)C1C(O)CC1C3(C)CCC(O)C(C)(C)C3C(O)CC12C (centres unmarked) [GF1] | remained unchanged | – | – | – | – | – | – | – | Papp A→B at 50 µM ([1]; Caco-2): < 0.3 ×10⁻⁶ cm/s
2 | CC(C)=CCC[C@](C)(O[C@@H]1O[C@H](CO[C@@H]2O[C@H](CO)[C@@H](O)[C@H](O)[C@H]2O)[C@@H](O)[C@H](O)[C@H]1O)[C@H]1CC[C@]2(C)[C@@H]1[C@H](O)C[C@@H]1[C@@]3(C)CC[C@H](O[C@@H]4O[C@H](CO)[C@@H](O)[C@H](O)[C@H]4O[C@@H]4O[C@H](CO)[C@@H](O)[C@H](O)[C@H]4O)C(C)(C)[C@@H]3CC[C@]12C [GRb1, ginsenoside Rb1] | marked decrease | < 0.3 | – | – | – | – | – | – | Change of AUC / pharmacokinetic parameters by RGE and LAB co-administration ([3]; RGE + LAB group versus RGE group, humans, result in words): not different; Cmax ([3]; male, human, plasma, po, 104.1 mg total ginsenosides/day, RGE group, human plasma, RGE oral 14 days, mean ± SD, n = 5, read-out: Cmax): 7.1 ± 3.2 ng/mL; MRT ([3]; male, human, plasma, po, 104.1 mg total ginsenosides/day, RGE group, human plasma, RGE oral 14 days, mean ± SD, n = 5, read-out: MRT): 18.3 ± 1.1 h; Tmax ([3]; male, human, plasma, po, 104.1 mg total ginsenosides/day, RGE group, human plasma, RGE oral 14 days, mean ± SD, n = 5, read-out: Tmax): 5.3 ± 4.6 h; Cmax ([3]; male, human, plasma, po, RGE + LAB group, human plasma, oral 14 days, mean ± SD, n = 5, read-out: Cmax): 6.2 ± 2.9 ng/mL; MRT ([3]; male, human, plasma, po, RGE + LAB group, human plasma, oral 14 days, mean ± SD, n = 5, read-out: MRT): 16.9 ± 0.5 h; Tmax ([3]; male, human, plasma, po, RGE + LAB group, human plasma, oral 14 days, mean ± SD, n = 5, read-out: Tmax): 6.8 ± 1.1 h; AUC ([3]; male, RGE + LAB group, human plasma, RGE plus LAB (1 billion CFU/2 g) once daily oral 14 days, AUC 0 to 24 h, mean ± SD, n = 5, read-out: AUC): 164 ± 77.3 ng·h/mL; AUC ([3]; male, RGE group, human plasma, RGE once daily oral 14 days (104.1 mg total ginsenosides/day), AUC 0 to 24 h, mean ± SD, n = 5, read-out: AUC): 185 ± 80.6 ng·h/mL; Oral bioavailability (BA) [4]: less than 5%
3 | CC(C)=CCC[C@](C)(O[C@@H]1O[C@H](CO[C@@H]2O[C@@H](CO)[C@H](O)[C@H]2O)[C@@H](O)[C@H](O)[C@H]1O)[C@H]1CC[C@]2(C)[C@@H]1[C@H](O)C[C@@H]1[C@@]3(C)CC[C@H](O[C@@H]4O[C@H](CO)[C@@H](O)[C@H](O)[C@H]4O[C@@H]4O[C@H](CO)[C@@H](O)[C@H](O)[C@H]4O)C(C)(C)[C@@H]3CC[C@]12C [GRc] | – | – | 5.1 ± 2.4 | 18.0 ± 1.2 | 6.2 ± 4.0 | 118.4 ± 58.2 | below 0.3 × 10^−6 cm/s | marked decrease | –
4 | CC(C)=CCC[C@](C)(O[C@@H]1O[C@H](CO)[C@@H](O)[C@H](O)[C@H]1O)[C@H]1CC[C@]2(C)[C@@H]1[C@H](O)C[C@@H]1[C@@]3(C)CC[C@H](O)C(C)(C)[C@@H]3[C@@H](O[C@@H]3O[C@H](CO)[C@@H](O)[C@H](O)[C@H]3O[C@@H]3O[C@@H](C)[C@H](O)[C@@H](O)[C@H]3O)C[C@]12C [GRe] | – | – | – | – | – | – | below 0.3 × 10^−6 cm/s | marked decrease | –
5 | CC(C)=CCC[C@](C)(O)[C@H]1CC[C@]2(C)[C@@H]1[C@H](O)C[C@@H]1[C@@]3(C)CC[C@H](O[C@@H]4O[C@H](CO)[C@@H](O)[C@H](O)[C@H]4O[C@@H]4O[C@H](CO)[C@@H](O)[C@H](O)[C@H]4O)C(C)(C)[C@@H]3CC[C@]12C [GRg3] | – | – | 7.2 ± 4.8 | 7.6 ± 2.8 | 7.2 ± 3.0 | 94.1 ± 50.0 | below 0.3 × 10^−6 cm/s | remained unchanged | A to B permeability ([6]; LLC-PK1): 0.07±0.01 × 10^−6 cm/s; B to A permeability ([6]; LLC-PK1): 0.07±0.01 × 10^−6 cm/s
6 | CC(C)=CCCC(C)(O)C1CCC2(C)C1C(O)CC1C3(C)CCC(O)C(C)(C)C3C(OC3OC(CO)C(O)C(O)C3O)CC12C (centres unmarked) [GRh1] | significantly increased | < 0.3 | – | – | – | – | – | – | efflux ratio at 20 μM ([6]; pig, LLC-PK1, LLC-PK1-P-gp cells, 20 μM, B to A Papp divided by A to B Papp, read-out: ER): 0.9; Papp A→B at 20 μM ([6]; pig, LLC-PK1-P-gp cells, 20 μM, mean ± SD, n = 3, read-out: A to B permeability): 0.21 ± 0.09 ×10⁻⁶ cm/s; Papp B→A at 20 μM ([6]; pig, LLC-PK1-P-gp cells, 20 μM, mean ± SD, n = 3, read-out: B to A permeability): 0.18 ± 0.01 ×10⁻⁶ cm/s
